Like-named read-outs stand apart in the source and are kept apart here.

The values below come from patent US12247037B2, “1-(2,6-diazaspiro[3.3]heptan-6-yl)-5,6-dihydro-4h-benzo[f][1,2,4]triazolo[4,3-A][1,4]diazepine derivatives and related compounds as vasopressin antagonists for the treatment of neuro-psychological disorders” (Neumora Therapeutics, Inc., priority 2018, dated 2025).

Data set [1] addresses T1, human Arginine Vasopressin Receptor V2 (AVPR2) (Homo sapiens, UniProt P30518).
T1 construct: host or cells: 1321N1 cells (cAMPZen V2 assay ready cells)
Description: Vasopressin V2 receptor antagonist assay (TR-FRET cAMP, 1321N1 cells). It is filed as cell-based. For orientation: TR-FRET usually uses a lanthanide donor and a delayed reading to cut background.
Description: The purpose of the assay is to determine the inhibitory effect of synthesized compounds on the Vasopressin receptor 2. […] Arginine Vasopressin (AVP) evokes an increase in intracellular cAMP in these cells which is measured in a TR-FRET assay using a Europium cAMP tracer and ULight labelled antibody reagents contained in a LANCE Ultra cAMP kit (Perkin Elmer #TRF0263). […] Test compounds are assessed for their ability to affect the magnitude of the response to AVP, with antagonists showing a concentration-dependent decrease in the AVP-mediated reduction in TR-FRET signal.
cAMPZen V2 assay ready cells are thawed at 37° C. and resuspended directly from frozen in 9 ml growth medium consisting of DMEM supplemented with 10% v/v fetal bovine serum, 1× non-essential amino acids, and 1 mM sodium pyruvate. […] The pellet is resuspended in 5 ml stimulation buffer and the cell density determined using the Vi-Cell automated cell counter. The cell suspension is diluted to a 0.2×10^6/ml suspension ready for plating. […]
At the start of each assay day the potency of AVP is assessed and an EC80 concentration determined for subsequent compound profiling. […] After a one hour incubation, plates are ready to be read (signals then remained stable for up to 24 hours). […] At the end of the incubation period, 2.5 μl of AVP in stimulation buffer is added at the previously determined EC80 concentration.

The target of data set [2] is T2, human Arginine Vasopressin Receptor 1a (AVPR1a) (Homo sapiens, UniProt P37288).
T2 construct: expressed in transfected cells; host or cells: CHO (Chinese Hamster Ovary) cells, kept under G418 selection
In words: Vasopressin V1a receptor antagonist assay (FLIPR calcium, CHO-AVPR1a cells). Type of data set: cell-based.
Description: The purpose of this assay is to determine the inhibitory effect of synthesized compounds on the Vasopressin V1a receptor. The assay is performed in Chinese Hamster Ovary (CHO) cells expressing the human Arginine Vasopressin Receptor 1a (AVPR1a). Arginine Vasopressin (AVP) evokes an increase in intracellular calcium in CHO-AVPR1a cells which is measured in a fluorescence assay on the FLIPR^TETRA using calcium sensitive dyes. Test compounds are assessed for their ability to affect the magnitude of the response to AVP, with antagonists showing a concentration-dependent reduction in the AVP-mediated fluorescence. Compounds are tested in duplicate in a 10-point, 1:3 dilution series starting at a nominal concentration of 3 μM in the assay. […]
On day one, cells are harvested from T175 flasks when they are 80-90% confluent by first washing the cell monolayer with PBS and then dissociated using trypsin 0.05%/EDTA (3 mL for a T175 Flask). […] To the cell suspension, 10 ml of growth media is added and the cell density determined using the Vi-Cell automated cell counter. […]
At the start of each assay day, the potency of AVP is assessed and an EC80 concentration determined for subsequent compound profiling. […] At the end of the incubation period, 10 μl of AVP in assay buffer containing 0.1% BSA is added at the previously determined EC80 concentration.

The subject of the next data set is MDR1 (P-glycoprotein). Description: in vitro. The note with it: dog, MDCK-MDR1.
In data set [3] the target is T3, human Oxytocin Receptor (hOTR) (Homo sapiens, UniProt P30559).
T3 construct: host or cells: CHEM-1 cells (ready-to-assay frozen cells)
T3 sequence (P30559 1-389): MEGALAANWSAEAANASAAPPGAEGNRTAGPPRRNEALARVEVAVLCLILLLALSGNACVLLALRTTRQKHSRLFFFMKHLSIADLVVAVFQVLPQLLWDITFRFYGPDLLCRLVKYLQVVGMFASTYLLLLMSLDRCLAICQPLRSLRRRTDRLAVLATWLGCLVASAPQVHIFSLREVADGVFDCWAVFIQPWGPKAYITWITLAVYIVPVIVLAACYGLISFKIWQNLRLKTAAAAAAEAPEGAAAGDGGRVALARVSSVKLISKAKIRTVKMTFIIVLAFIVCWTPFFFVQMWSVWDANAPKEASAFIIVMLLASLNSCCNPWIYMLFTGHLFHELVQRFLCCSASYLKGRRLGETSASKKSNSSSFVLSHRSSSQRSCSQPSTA
In words: Oxytocin receptor antagonist assay (FLIPR calcium, CHEM-1-hOTR cells). Type of data set: cell-based. To be noted: antagonism of oxytocin (EC80) response; read-out: OT IC50. The method, then:
This assay is performed in CHEM-1 cells expressing the human Oxytocin Receptor (hOTR) to determine the inhibitory effect of the compounds of the invention on the human Oxytocin receptor. Oxytocin evokes an increase in intracellular calcium in CHEM-1-hOTR cells which is measured in a fluorescence assay on the FLIPR^TETRA using calcium sensitive dyes. Test compounds are assessed for their ability to affect the magnitude of the response to oxytocin, with antagonists showing a concentration-dependent reduction in the oxytocin-mediated fluorescence.
CHEM-1-hOTR ready is used to assay frozen cells (Eurofins #HTS090RTA) which are supplied with a proprietary Media Component.
Day 1 of the assay: Cells are thawed in a 37° C. water bath and diluted with the supplied Media Component to a final volume of 10 ml. The cell suspension is centrifuged at 1000 rpm for 3 min at room temperature and the supernatant is discarded. […]
Day 2: At the start of each assay day the potency of oxytocin is assessed and an EC80 concentration is determined for subsequent compound profiling. […] Changes in fluorescence are monitored for 3 min after both additions on the FLIPR^TETRA using 470-495 nm excitation and 515-575 nm emission wavelengths. […] At the end of the incubation period 10 μl of oxytocin in assay buffer containing 0.1% BSA is added at the previously determined EC80 concentration. […]

A further data set can be described thus: in vitro. The note with it: dog, MDCK.
Data set [4] has as its target T4, human Arginine Vasopressin Receptor 1b (AVPR1b) (Homo sapiens, UniProt P47901).
T4 construct: expressed in transfected cells; host or cells: CHO (Chinese Hamster Ovary) cells, kept under G418 selection
T4 sequence (P47901 1-424): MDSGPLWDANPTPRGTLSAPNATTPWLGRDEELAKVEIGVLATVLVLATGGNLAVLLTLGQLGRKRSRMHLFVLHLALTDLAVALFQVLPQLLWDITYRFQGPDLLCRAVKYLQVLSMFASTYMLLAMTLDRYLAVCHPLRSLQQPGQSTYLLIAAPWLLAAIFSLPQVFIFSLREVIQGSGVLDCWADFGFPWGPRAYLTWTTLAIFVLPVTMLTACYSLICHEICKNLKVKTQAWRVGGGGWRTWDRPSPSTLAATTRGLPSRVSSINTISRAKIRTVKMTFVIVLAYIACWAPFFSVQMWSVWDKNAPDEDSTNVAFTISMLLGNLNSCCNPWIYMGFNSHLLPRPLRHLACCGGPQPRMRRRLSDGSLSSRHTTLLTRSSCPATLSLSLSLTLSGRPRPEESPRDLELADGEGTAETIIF
In words: Vasopressin V1b receptor antagonist assay (FLIPR calcium, CHO-AVPR1b cells). It is filed as cell-based. To be noted: antagonism of AVP (EC80) response. How it is done:
The purpose of the assay is to determine the inhibitory effect of synthesized compounds on the Vasopressin V1b receptor. The assay is performed in Chinese Hamster Ovary (CHO) cells expressing the human Arginine Vasopressin Receptor 1b (AVPR1b). Arginine Vasopressin (AVP) evokes an increase in intracellular calcium in CHO-AVPR1b cells which is measured in a fluorescence assay on the FLIPR^TETRA using calcium sensitive dyes. Test compounds are assessed for their ability to affect the magnitude of the response to AVP, with antagonists showing a concentration-dependent reduction in the AVP-mediated fluorescence.
CHO-AVPR1b cells are maintained in routine culture in T175 Flasks at 37° C., 5% CO2. […]
Cells are harvested from T175 flasks when they are 80-90% confluent by first washing the cell monolayer with PBS and then dissociated using trypsin 0.05%/EDTA (3 mL for a T175 Flask). […] To the cell suspension, 10 ml of growth media is added and the cell density determined using the Vi-Cell automated cell counter. […]
At the start of each assay day, the potency of AVP is assessed and an EC80 concentration determined for subsequent compound profiling. […] Changes in fluorescence are monitored for 3 min after both additions on the FLIPR^TETRA using 470-495 nm excitation and 515-575 nm emission wavelengths. […]

T2 sequence (P37288 whole entry): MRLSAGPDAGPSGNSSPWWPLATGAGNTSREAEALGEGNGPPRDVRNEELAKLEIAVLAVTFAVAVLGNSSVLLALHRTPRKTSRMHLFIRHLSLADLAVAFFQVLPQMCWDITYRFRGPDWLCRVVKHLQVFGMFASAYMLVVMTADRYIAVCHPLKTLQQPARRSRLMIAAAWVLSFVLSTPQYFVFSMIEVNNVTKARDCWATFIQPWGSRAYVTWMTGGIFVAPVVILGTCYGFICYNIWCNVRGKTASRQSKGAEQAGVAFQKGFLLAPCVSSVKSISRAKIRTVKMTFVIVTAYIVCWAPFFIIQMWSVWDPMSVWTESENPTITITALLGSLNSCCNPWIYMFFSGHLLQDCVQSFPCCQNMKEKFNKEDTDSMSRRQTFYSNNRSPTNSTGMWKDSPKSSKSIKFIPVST
T1 sequence (P30518 whole entry): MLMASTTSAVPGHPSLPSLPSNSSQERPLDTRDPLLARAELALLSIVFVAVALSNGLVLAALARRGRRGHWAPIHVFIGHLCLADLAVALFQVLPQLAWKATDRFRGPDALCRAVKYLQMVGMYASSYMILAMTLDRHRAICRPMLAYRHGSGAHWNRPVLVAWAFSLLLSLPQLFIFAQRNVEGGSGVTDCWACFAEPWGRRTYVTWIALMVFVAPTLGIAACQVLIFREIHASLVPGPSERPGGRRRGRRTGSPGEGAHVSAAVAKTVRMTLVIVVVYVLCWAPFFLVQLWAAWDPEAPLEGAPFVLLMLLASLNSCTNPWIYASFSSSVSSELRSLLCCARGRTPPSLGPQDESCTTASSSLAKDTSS

The term IC50 denotes the concentration that inhibits the measured activity by half. What is called Papp A→B is the apparent permeability from the apical to the basolateral side of a cell layer. Low values mean poor permeation, high ones ready permeation. As to `Clc1ccc2c(c1)CN(C1CC1)Cc1nnc(N3CC4(CN(c5ncccn5)C4)C3)n1-2` [Compound No. 225, 8-chloro-5-cyclopropyl-1-(6-(pyrimidin-2-yl)-2,6-diazaspiro[3.3]heptan-2-yl)-5,6-dihydro-4H-benzo[f][1,2,4]triazolo[4,3-a][1,4]diazepine], the half-inhibitory concentration (IC50) is more than 1000 nM in data set [1] and less than 100 nM in data set [2]. For the same molecule, the Papp A→B in the data set with MDR1 (P-glycoprotein) was more than 20 ×10⁻⁶ cm/s.

For the molecule `CN1Cc2cc(Cl)ccc2-n2c(nnc2[C@H]2CC[C@H](Oc3ccccn3)CC2)C1` [balovaptan], the 50% inhibitory concentration (IC50) was more than 1000 nM in data set [3]; less than 100 nM in data set [2] (antagonism of AVP (EC80) response, read-out: V1a IC50); more than 1000 nM in data set [4]. The apparent permeability from apical to basolateral (Papp A→B) was 10 to 20 ×10⁻⁶ cm/s in “in vitro” and more than 20 ×10⁻⁶ cm/s with MDR1 (P-glycoprotein).
